PubChem BioAssay (NCI)
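Step 1: Grow cells in 96-well plates. Step 2: Expose to compound for 48 hours at 5 concentrations. Step 3: Interpolate endpoints linearly; if unreached, use highest concentration. At the GI50, growth is halved. TGI marks complete inhibition of growth.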

Tests used:
Test in all cases: inhibition of tumour cell growth, NCI panel, 48 h
[1] = system: T-47D breast
[2] = system: SF-539 CNS
[3] = system: HCT-15 colon
[4] = system: OVCAR-8 ovarian
[5] = system: SK-MEL-28 melanoma
[6] = system: CCRF-CEM leukemia
[7] = system: SK-MEL-2 melanoma
[8] = system: HL-60(TB) leukemia
[9] = system: UACC-62 melanoma
[10] = system: COLO 205 colon
[11] = system: SK-MEL-5 melanoma
[12] = system: 786-0 renal
[13] = system: SW-620 colon
[14] = system: NCI-H460 lung
[15] = system: NCI-H226 lung
[16] = system: A549 NSCLC
[17] = system: HT29 colon
[18] = system: SNB-19 CNS
[19] = system: RXF 393 renal
[20] = system: TK-10 renal
[21] = system: PC-3 prostate
[22] = system: SF-295 CNS
[23] = system: UO-31 renal
[24] = system: UACC-257 melanoma
[25] = system: ACHN renal
[26] = system: M14 melanoma
[27] = system: DU-145 prostate
[28] = system: NCI/ADR-RES ovarian
[29] = system: A498 renal
[30] = system: SNB-75 CNS
[31] = system: KM12 colon
[32] = system: SN12C renal
[33] = system: HS 578T breast
[34] = system: EKVX NSCLC
[35] = system: OVCAR-5 ovarian
[36] = system: MALME-3M melanoma
[37] = system: SK-OV-3 ovarian
[38] = system: SF-268 CNS
[39] = system: BT-549 breast
[40] = system: HCT-116 colon
[41] = system: HCC-2998 colon
[42] = system: OVCAR-3 ovarian
[43] = system: MCF7 breast
[44] = system: MDA-MB-435
[45] = system: NCI-H522 lung
[46] = system: LOX IMVI melanoma
[47] = system: RPMI-8226 leukemia
[48] = system: OVCAR-4 ovarian
[49] = system: U251 CNS
[50] = system: MDA-MB-231 breast
[51] = system: CAKI-1 renal
[52] = system: IGROV1 ovarian
[53] = system: NCI-H23 lung
[54] = system: HOP-92 NSCLC
[55] = system: HOP-62 NSCLC

With Cc1cccc2c(C(=O)O[C@H](C(N)=O)[C@]3(C)CO3)cccc12 the GI50 [1] was 2.75 µM, the TGI [1] was 15.9 µM and the GI50 [2] was 0.496 µM. For the same compound, the TGI [2] was 1.57 µM, the GI50 [3] was 1.69 µM and the TGI [3] was 7.7 µM. The GI50 [4] was 0.465 µM, the TGI [4] was 26.8 µM and the GI50 [5] was 1.91 µM. It also gave a TGI [5] of 5.49 µM, a GI50 [6] of 0.599 µM and a GI50 [7] of 1.72 µM. The TGI [7] was 8.96 µM, the GI50 [8] was over 100 µM and the TGI [8] was over 100 µM. It also gave a GI50 [9] of 0.481 µM, a TGI [9] of 1.75 µM and a GI50 [10] of 2.37 µM. For the same compound, the TGI [10] was 13.4 µM, the GI50 [11] was 1.23 µM and the TGI [11] was 3.04 µM. For the same compound, the GI50 [12] was 1.4 µM, the TGI [12] was 8.21 µM and the GI50 [13] was 0.351 µM. The TGI [13] was over 79.9 µM, the GI50 [14] was 4.31 µM and the TGI [14] was over 41.5 µM. It also gave a GI50 [15] of 0.556 µM, a TGI [15] of 2.21 µM and a GI50 [16] of 3.66 µM. For the same compound, the TGI [16] was over 100 µM, the GI50 [17] was 0.693 µM and the GI50 [18] was 5.23 µM. For the same compound, the TGI [18] was over 61.7 µM, the GI50 [19] was 3.76 µM and the TGI [19] was over 100 µM. The GI50 [20] was 6.02 µM, the TGI [20] was 33.3 µM and the GI50 [21] was 1.83 µM. For the same compound, the TGI [21] was over 22.5 µM, the GI50 [22] was 2.11 µM and the TGI [22] was 19.2 µM. It also gave a GI50 [23] of 1.49 µM, a TGI [23] of 7.15 µM and a GI50 [24] of 4.38 µM. It also gave a TGI [24] of over 41.8 µM, a GI50 [25] of 0.302 µM and a TGI [25] of 2.67 µM. The GI50 [26] was 0.938 µM, the TGI [26] was 2.88 µM and the GI50 [27] was 1.17 µM. For the same compound, the TGI [27] was 5.89 µM, the GI50 [28] was 0.904 µM and the TGI [28] was 6.34 µM. It also gave a GI50 [29] of 13.3 µM, a TGI [29] of 41.2 µM and a GI50 [30] of 2.81 µM. For the same compound, the TGI [30] was 13.1 µM, the GI50 [31] was 6.65 µM and the TGI [31] was 42.9 µM. The GI50 [32] was 0.271 µM, the TGI [32] was 2.58 µM and the GI50 [33] was 3.52 µM. The TGI [33] was over 26.8 µM, the GI50 [34] was 3.93 µM and the TGI [34] was 13.5 µM. For the same compound, the GI50 [35] was 3.12 µM, the TGI [35] was over 34.4 µM and the GI50 [36] was 3.97 µM. For the same compound, the TGI [36] was 10.6 µM, the GI50 [37] was 7.48 µM and the TGI [37] was 24.4 µM. For the same compound, the GI50 [38] was 2.3 µM, the TGI [38] was over 100 µM and the GI50 [39] was 1.95 µM. It also gave a TGI [39] of 6.07 µM, a GI50 [40] of 0.135 µM and a TGI [40] of 5.51 µM. The GI50 [41] was 1.24 µM, the TGI [41] was 3.33 µM and the GI50 [42] was 2.07 µM. The TGI [42] was 13.3 µM, the GI50 [43] was 0.342 µM and the TGI [43] was over 100 µM. It also gave a GI50 [44] of 4.75 µM, a TGI [44] of 26.8 µM and a GI50 [45] of 1.39 µM. The TGI [45] was 7.82 µM, the GI50 [46] was 0.0926 µM and the TGI [46] was 1.78 µM. The GI50 [47] was 1.71 µM, the GI50 [48] was 3.39 µM and the TGI [48] was over 55.9 µM. The GI50 [49] was 0.69 µM, the TGI [49] was 8.07 µM and the GI50 [50] was 1.99 µM. The TGI [50] was 6.57 µM, the GI50 [51] was 1.33 µM and the TGI [51] was 11.6 µM. The GI50 [52] was 0.817 µM, the TGI [52] was over 22.4 µM and the GI50 [53] was 1.13 µM. The TGI [53] was 3.11 µM, the GI50 [54] was 2.28 µM and the TGI [54] was 11.4 µM. The GI50 [55] was 1.12 µM and the TGI [55] was 4.66 µM.
